Test results published in paper PMC8848307 (Journal of medicinal chemistry, 2019).
Where “and” joins values, the source holds several entries; their conditions need not be identical. Identical values can stand only once.

Assays:
[1] = target: human recombinant STAT3 SH2 protein (Homo sapiens, UniProt P40763); assay: Fluorescence polarization; assay type: binding; details: for times less potent than SI-109 in binding to STAT3: ratio of binding affinities vs SI-109
[2] = target: T1, STAT3 protein (Homo sapiens, UniProt P40763); assay: Western blotting of STAT3 degradation in Molm-16 cells; assay type: cell-based; details: Molm-16 cells, ratio of DC50
T1 sequence (P40763 whole entry): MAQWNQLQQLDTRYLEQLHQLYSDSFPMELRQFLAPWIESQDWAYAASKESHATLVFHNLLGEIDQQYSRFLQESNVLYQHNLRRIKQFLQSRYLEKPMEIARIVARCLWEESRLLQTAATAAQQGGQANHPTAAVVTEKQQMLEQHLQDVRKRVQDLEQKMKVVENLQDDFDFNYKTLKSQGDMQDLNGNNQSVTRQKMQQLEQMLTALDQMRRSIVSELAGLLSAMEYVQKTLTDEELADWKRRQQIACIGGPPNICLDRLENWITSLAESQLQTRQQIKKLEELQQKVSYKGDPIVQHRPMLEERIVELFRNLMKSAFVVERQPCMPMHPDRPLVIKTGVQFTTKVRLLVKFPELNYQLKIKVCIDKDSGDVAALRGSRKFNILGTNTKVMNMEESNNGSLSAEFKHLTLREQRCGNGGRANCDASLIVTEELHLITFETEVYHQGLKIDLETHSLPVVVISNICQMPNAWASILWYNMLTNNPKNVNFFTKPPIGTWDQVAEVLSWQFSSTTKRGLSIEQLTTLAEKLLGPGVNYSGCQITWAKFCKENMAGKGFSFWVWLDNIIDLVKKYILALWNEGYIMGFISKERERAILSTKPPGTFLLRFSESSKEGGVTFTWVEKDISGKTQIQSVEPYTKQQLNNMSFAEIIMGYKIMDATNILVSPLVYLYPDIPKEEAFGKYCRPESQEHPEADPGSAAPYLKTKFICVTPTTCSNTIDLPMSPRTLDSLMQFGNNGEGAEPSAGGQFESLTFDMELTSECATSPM

[3] = target: T1, STAT3 protein; assay: Western blotting of STAT3 degradation in SU-DHL-1 cells; assay type: cell-based; details: for times less potent than SD-36 in STAT3 degradation: SU-DHL-1 cells, ratio of DC50; for reducing the levels of STAT3 and pSTAT3^Y705 proteins: SU-DHL-1, up to 5 μM

Sequence of human recombinant STAT3 SH2 protein (P40763 127-688): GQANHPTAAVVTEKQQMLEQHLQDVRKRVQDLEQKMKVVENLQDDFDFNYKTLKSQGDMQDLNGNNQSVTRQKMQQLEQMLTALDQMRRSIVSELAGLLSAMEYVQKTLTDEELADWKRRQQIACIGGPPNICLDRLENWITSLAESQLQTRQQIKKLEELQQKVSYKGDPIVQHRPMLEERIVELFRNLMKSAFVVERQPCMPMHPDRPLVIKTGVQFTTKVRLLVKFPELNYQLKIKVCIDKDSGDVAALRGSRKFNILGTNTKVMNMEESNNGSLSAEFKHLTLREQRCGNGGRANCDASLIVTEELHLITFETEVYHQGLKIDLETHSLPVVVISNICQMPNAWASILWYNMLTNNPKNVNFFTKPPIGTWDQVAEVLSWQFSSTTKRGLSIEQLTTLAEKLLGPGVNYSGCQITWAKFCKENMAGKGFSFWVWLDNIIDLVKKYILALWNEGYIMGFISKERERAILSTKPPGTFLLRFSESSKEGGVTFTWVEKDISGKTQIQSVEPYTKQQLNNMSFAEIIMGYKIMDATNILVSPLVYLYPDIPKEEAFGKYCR

Compound | times less potent than SI-109 in binding to STAT3 [1] | times less potent than SD-36 in STAT3 degradation [2] | times less potent than SD-36 in STAT3 degradation [3] | other results
NC(=O)CC[C@H](NC(=O)[C@@H]1CC[C@@H]2CCCC[C@H](NC(=O)c3cc4cc(CP(=O)(O)O)ccc4[nH]3)C(=O)N21)C(=O)NCc1ccccc1 [Compound 3, (2-((3S,6S)-3-((S)-5-Amino-1-(benzylamino)-1,5-dioxopentan-2-ylcarbamoyl)-5-oxodecahydropyrrolo[1,2-a]azocin-6-ylcarbamoyl)-1H-indol-5-yl)methylphosphonic Acid] |  |  |  | times weaker than 2 in binding to STAT3 ([1]; ratio of Ki vs compound 2): 30 times
NC(=O)CC[C@H](NC(=O)[C@@H]1CC[C@@H]2CCCC[C@H](NC(=O)c3cc4cc(C(F)(F)P(=O)(O)O)ccc4[nH]3)C(=O)N21)C(=O)NCc1ccccc1 [Compound 4, (2-((3S,6S)-3-((S)-5-Amino-1-(benzylamino)-1,5-dioxopentan-2-ylcarbamoyl)-5-oxodecahydropyrrolo[1,2-a]azocin-6-ylcarbamoyl)-1H-indol-5-yl)difluoromethylphosphonic Acid] |  |  |  | times more potent than 3 in binding to STAT3 ([1]; ratio of Ki vs compound 3): > 100 times
CC(=O)N1CC[C@H]2CC[C@@H](C(=O)N[C@@H](CCC(N)=O)C(=O)NC(c3ccccc3)c3ccccc3)N2C(=O)[C@@H](NC(=O)c2cc3cc(OP(=O)(O)O)ccc3[nH]2)C1 [Compound 9, 2-(((5S,8S,10aR)-3-Acetyl-8-(((S)-5-amino-1-(benzhydrylamino)-1,5-dioxopentan-2-yl)carbamoyl)-6-oxodecahydropyrrolo[1,2-a][1,5]diazocin-5-yl)carbamoyl)-1H-indol-5-yl Dihydrogen Phosphate] | 2 times |  |  | 
CC(=O)N1CC[C@H]2CC[C@@H](C(=O)N[C@@H](CCC(N)=O)C(=O)NC(c3ccccc3)c3ccccc3)N2C(=O)[C@@H](NC(=O)c2cc3cc(CP(=O)(O)O)ccc3[nH]2)C1 [Compound 10, ((2-(((5S,8S,10aR)-3-Acetyl-8-(((S)-5-amino-1-(benzhydrylamino)-1,5-dioxopentan-2-yl)carbamoyl)-6-oxodecahydropyrrolo[1,2-a][1,5]diazocin-5-yl)carbamoyl)-1 H-indol-5-yl)methyl)phosphonic Acid] | 14 times |  |  | 
CC(=O)N1CC[C@H]2CC[C@@H](C(=O)N[C@@H](CCC(N)=O)C(=O)NC(c3ccccc3)c3ccccc3)N2C(=O)[C@@H](NC(=O)/C=C(\C)c2ccc(C(F)(F)P(=O)(O)O)cc2)C1 [Compound 11, ((4-((E)-4-(((5S,8S,10aR)-3-Acetyl-8-(((S)-5-amino-1-(benzhydrylamino)-1,5-dioxopentan-2-yl)carbamoyl)-6-oxodecahydropyrrolo[1,2-a][1,5]diazocin-5-yl)amino)-4-oxobut-2-en-2-yl)phenyl)difluoromethyl)phosphonic Acid] | > 10 times |  |  | 
NC(=O)CC[C@H](NC(=O)[C@@H]1CC[C@@H]2CCN(CCCCCCC#Cc3cccc4c3CN(C3CCC(=O)NC3=O)C4=O)C[C@H](NC(=O)c3cc4cc(C(F)(F)P(=O)(O)O)ccc4[nH]3)C(=O)N21)C(=O)NC(c1ccccc1)c1ccccc1 (stereo partly drawn) [Compound 17, ((2-(((5S,8S,10aR)-8-(((S)-5-Amino-1-(benzhydrylamino)-1,5-dioxopentan-2-yl)carbamoyl)-3-(8-(2-(2,6-dioxopiperidin-3-yl)-1-oxoisoindolin-4-yl)oct-7-yn-1-yl)-6-oxodecahydropyrrolo[1,2-a][1,5]diazocin-5-yl)carbamoyl)-1H-indol-5-yl)difluoromethyl)phosphonic Acid] |  | > 10 times | 30 times | 
NC(=O)CC[C@H](NC(=O)[C@@H]1CC[C@@H]2CCN(C(=O)CCCCCC#Cc3cccc4c3C(=O)N(C3CCC(=O)NC3=O)C4=O)C[C@H](NC(=O)c3cc4cc(C(F)(F)P(=O)(O)O)ccc4[nH]3)C(=O)N21)C(=O)NC(c1ccccc1)c1ccccc1 (stereo partly drawn) [Compound 27, ((2-(((5S,8S,10aR)-8-(((S)-5-Amino-1-(benzhydrylamino)-1,5-dioxopentan-2-yl)carbamoyl)-3-(8-(2-(2,6-dioxopiperidin-3-yl)-1,3-dioxoisoindolin-4-yl)oct-7-ynoyl)-6-oxodecahydropyrrolo[1,2-a][1,5]diazocin-5-yl)carbamoyl)-1H-indol-5-yl)difluoromethyl)phosphonic Acid] |  | > 50 times |  | reducing the levels of STAT3 and pSTAT3^Y705 proteins [3]: ineffective
NC(=O)CC[C@H](NC(=O)[C@@H]1CC[C@@H]2CCN(C(=O)CCCCCC#Cc3cccc4c3CN(C3CCC(=O)NC3=O)C4=O)C[C@H](NC(=O)c3cc4cc(C(F)(F)P(=O)(O)O)ccc4[nH]3)C(=O)N21)C(=O)NCc1ccccc1 (stereo partly drawn) [Compound 30, ((2-(((5S,8S,10aR)-8-(((S)-5-Amino-1-(benzylamino)-1,5-dioxopentan-2-yl)carbamoyl)-3-(8-(2-(2,6-dioxopiperidin-3-yl)-1-oxoisoindolin-4-yl)oct-7-ynoyl)-6-oxodecahydropyrrolo-[1,2-a][1,5]diazocin-5-yl)carbamoyl) −1H-indol-5-yl)difluoromethyl)phosphonic Acid] |  | 4 times | 2 times | 
CNC(=O)[C@H](CCC(N)=O)NC(=O)[C@@H]1CC[C@@H]2CCN(C(=O)CCCCCC#Cc3cccc4c3CN(C3CCC(=O)NC3=O)C4=O)C[C@H](NC(=O)c3cc4cc(C(F)(F)P(=O)(O)O)ccc4[nH]3)C(=O)N21 (stereo partly drawn) [Compound 31, ((2-(((5S,8S,10aR)-8-(((S)-5-Amino-1-(methylamino)-1,5-dioxopentan-2-yl)carbamoyl)-3-(8-(2-(2,6-dioxopiperidin-3-yl)-1-oxoisoindolin-4-yl)oct-7-ynoyl)-6-oxodecahydropyrrolo-[1,2-a][1,5]diazocin-5-yl)carbamoyl)-1H-indol-5-yl)difluoromethyl)phosphonic Acid] |  | 10 times and > 10 times | 30 times | 
C/C(=C\C(=O)N[C@H]1CN(C(=O)CCCCCC#Cc2cccc3c2CN(C2CCC(=O)NC2=O)C3=O)CC[C@H]2CC[C@@H](C(=O)N[C@@H](CCC(N)=O)C(=O)NC(c3ccccc3)c3ccccc3)N2C1=O)c1ccc(C(F)(F)P(=O)(O)O)cc1 (stereo partly drawn) [Compound 34, ((4-((E)-4-(((5S,8S,10aR)-8-(((S)-5-Amino-1-(benzhydrylamino)-1,5-dioxopentan-2-yl)carbamoyl)-3-(8-(2-(2,6-dioxopiperidin-3-yl)-1-oxoisoindolin-4-yl)oct-7-ynoyl)-6-oxodecahydropyrrolo[1,2-a][1,5]diazocin-5-yl)amino)-4-oxobut-2-en-2-yl)phenyl)difluoromethyl)phosphonic Acid] |  | > 70 times |  | effect on the levels of STAT3 and pSTAT3^Y705 ([3]; SU-DHL-1, concentrations up to 10 μM): fails to degrade; reducing the levels of STAT3 and pSTAT3^Y705 proteins [3]: ineffective
